{"source": "ChEMBL document CHEMBL5614388", "about": "“FLT3-PROTACs for combating AML resistance: Analytical overview on chimeric agents developed, challenges, and future perspectives” (Eur J Med Chem, 2024)", "key": {"MV4-11 [1]": {"test_system": "MV4-11", "test": "Antiproliferative activity against human MV4-11 cells assessed as reduction in cell viability measured after 48 hrs by CellTiter-Glo assay", "type": "functional, cell-based", "details": "MV4-11, 48 h"}, "Kasumi 1": {"test_system": "Kasumi 1", "test": "cells", "details": "Homo sapiens, Kasumi 1, 72 h", "description": "Antiproliferative activity against human Kasumi 1 cells assessed as reduction in cell viability incubated for 72 hrs by Cell-titer glo luminescent assay"}, "MV4-11 [2]": {"test_system": "MV4-11", "test": "Antiproliferative activity against human MV4-11 cells assessed as reduction in cell growth", "type": "functional, cell-based"}, "MV4-11 [3]": {"test_system": "MV4-11", "test": "Antiproliferative activity against human MV4-11 cells assessed as reduction in cell growth incubated for 48 hrs by CCK-8 assay", "type": "functional, cell-based", "details": "MV4-11, 48 h"}, "MV4-11 [4]": {"test_system": "MV4-11", "test": "Antiproliferative activity against human MV4-11 cells assessed as reduction in cell viability incubated for 48 hrs by MTS assay", "type": "functional, cell-based", "details": "MV4-11, 48 h"}, "BaF3 [5]": {"test_system": "BaF3", "test": "Antiproliferative activity against mouse BaF3 cells expressing FLT3-ITD D835Y mutant incubated for 48 hrs by CCK8 assay", "type": "functional, cell-based", "details": "BaF3, 48 h"}, "BaF3 [6]": {"test_system": "BaF3", "test": "Antiproliferative activity against mouse BaF3 cells expressing FLT3-ITD mutant incubated for 48 hrs by CCK8 assay", "type": "functional, cell-based", "details": "BaF3, 48 h"}, "BaF3 [7]": {"test_system": "BaF3", "test": "Antiproliferative activity against mouse BaF3 cells expressing FLT3-ITD F691L mutant incubated for 48 hrs by CCK8 assay", "type": "functional, cell-based", "details": "BaF3, 48 h"}, "MOLM-13": {"test_system": "MOLM-13", "test": "Antiproliferative activity against human MOLM-13 cells assessed as reduction in cell viability incubated for 48 hrs by MTS assay", "type": "functional, cell-based", "details": "MOLM-13, 48 h"}, "MV4-11 [8]": {"test_system": "MV4-11", "test": "cells", "details": "Homo sapiens", "description": "Antiproliferative activity against human MV4-11 cells assessed as reduction in cell viability by WAT-8 reagent based analysis"}}}
{"smiles": "CC(C)(C)c1cc(NC(=O)Nc2ccc(-c3cn(CCCCc4cn(CCCCC(=O)Nc5cccc6c5CN(C5CCC(=O)NC5=O)C6=O)nn4)c4ncnc(N)c34)cc2)no1", "note": "(stereo not given)", "values": [{"measurement": "IC50", "setting": "MV4-11 [1]", "result": 4.83, "unit": "nM"}]}
{"smiles": "Cc1[nH]c(/C=C2\\C(=O)Nc3ccc(F)cc32)c(C)c1C(=O)NCCCCCCNc1cccc2c1C(=O)N(C1CCC(=O)NC1=O)C2=O", "note": "(stereo not given)", "values": [{"measurement": "EC50", "setting": "Kasumi 1", "result": 21.3, "unit": "nM"}]}
{"smiles": "O=C(CCCCCCC(=O)Nc1cc(-c2ccc3ncn(Cc4c(Cl)cccc4Cl)c3c2)[nH]n1)NO", "values": [{"measurement": "IC50", "setting": "MV4-11 [2]", "result": 92, "unit": "nM"}]}
{"smiles": "CCc1nc(C(N)=O)c(Nc2ccc(N3CCN(CN4CCN(c5ccc6c(c5)C(=O)N(C5CCC(=O)NC5=O)C6=O)CC4)CC3)c(OC)c2)nc1NC1CCOCC1", "note": "(stereo not given)", "values": [{"measurement": "IC50", "setting": "MV4-11 [3]", "result": 1.66, "unit": "nM"}]}
{"smiles": "CCCNc1nc(Nc2ccc(C#N)cc2)ncc1C#CCCCNC(=O)[C@H](C)N(C)C(=O)/C=C/CN(C)C", "note": "[FF-10101]", "values": [{"measurement": "IC50", "setting": "MV4-11 [4]", "result": 1.1, "unit": "nM"}, {"measurement": "IC50", "setting": "BaF3 [5]", "result": 11.1, "unit": "nM"}, {"measurement": "IC50", "setting": "BaF3 [6]", "result": 1.8, "unit": "nM"}, {"measurement": "IC50", "setting": "BaF3 [7]", "result": 14.5, "unit": "nM"}, {"measurement": "IC50", "setting": "MOLM-13", "result": 0.83, "unit": "nM"}]}
{"smiles": "CCc1nc(C(N)=O)c(Nc2ccc(N3CCC(N4CCN(C)CC4)CC3)c(OC)c2)nc1NC1CCOCC1", "note": "[GILTERITINIB]", "values": [{"measurement": "IC50", "setting": "MV4-11 [8]", "result": 0.9, "unit": "nM"}]}
